Data on 8 compounds can be found in ChEMBL document CHEMBL1152983, “Substitution of the arginine/leucine residues in apidaecin Ib with peptoid residues: effect on antimicrobial activity, cellular uptake, and proteolytic degradation” (J Med Chem, 2009).

Data set [1] relates to Escherichia coli. As to the kind of experiment: Antimicrobial activity against Escherichia coli ML35 after 18 hrs by broth microdilution susceptibility test. It is filed as functional. To be noted: ML35, 18 h. (Dilution methods test growth across graded concentrations, often in twofold steps.)
In data set [2] the test system is Escherichia coli. As to the kind of experiment: Antimicrobial activity against Escherichia coli O18K1H7 after 18 hrs by broth microdilution susceptibility test. The settings on record: O18K1H7, 18 h. It is filed as functional.
For data set [3], the system named is Escherichia coli. As to the kind of experiment: Antimicrobial activity against Escherichia coli ATCC 25922 after 18 hrs by broth microdilution susceptibility test. Format: functional. The settings on record: ATCC 25922, 18 h.
The test system of another data set is Klebsiella pneumoniae. As to the kind of experiment: Antimicrobial activity against Klebsiella pneumoniae 22 after 18 hrs by broth microdilution susceptibility test. Format: functional. The settings on record: Klebsiella pneumoniae, 22, 18 h.
Data set [4] deals with Salmonella enterica subsp. enterica. As to the kind of experiment: Antimicrobial activity against Salmonella enteritidis D5 after 18 hrs by broth microdilution susceptibility test. The settings on record: D5, 18 h. Format: functional, Salmonella enterica subsp. enterica serovar Enteritidis.
Data set [5] shares this test system. As to the kind of experiment: Antimicrobial activity against Salmonella enteritidis PD1 after 18 hrs by broth microdilution susceptibility test. It is filed as functional, Salmonella enterica subsp. enterica serovar Enteritidis. To be noted: PD1, 18 h.
The test system is the same in data set [6]. As to the kind of experiment: Antimicrobial activity against Salmonella Typhimurium ATCC 14028 after 18 hrs by broth microdilution susceptibility test. Format: functional, Salmonella enterica subsp. enterica serovar Typhimurium. To be noted: ATCC 14028, 18 h.
A short description of data set [7]: Toxicity in human erythrocytes assessed as hemolytic activity at 30 uM after 60 mins. Format: cell-based, Erythrocyte. The settings on record: read-out: Activity.
The nature of data set [8]: Toxicity in human erythrocytes assessed as hemolytic activity at 300 uM after 60 mins. To be noted: read-out: Activity. It is filed as cell-based, Erythrocyte.
A short description of data set [9]: Membrane permeabilization in eukaryotic membrane model consisting of single unilamellar vesicle of L-alpha-phosphatidylcholine-cholesterol assessed as 5(6)-carboxyfluorescein release at high peptide-to-lipid ratio after 20 mins by fluorescence assay. Format: ADME, cell membranes.
The nature of data set [10]: Membrane permeabilization in eukaryotic membrane model consisting of single unilamellar vesicle of L-alpha-phosphatidylcholine-cholesterol assessed as 5(6)-carboxyfluorescein release at high peptide-to-lipid ratio after 50 mins by fluorescence assay. It is filed as ADME, cell membranes.

≈ marks a conversion by molar mass, not a printed value. Starred links: 1 amine or outer side, 2 acyl side, 3 side chain; linkers in the order of their positions; H or OH if unused. Non-standard residues stand in square brackets, D forms with d. Residues, ends and D or L forms follow the SMILES beside them. Gly(N-(CH2)3-guanidino) = N=C(N)NCCCNCC(=O)O; X1 = N=C(N)NCCN(CC(=O)[*:2])[*:1]; NhArg = N=C(N)NCCCCNCC(=O)O

In general, MIC refers to the lowest concentration found to suppress growth. Lower therefore signals inhibition by little substance.

For `CC[C@H](C)[C@H](NC(=O)[C@H](Cc1ccc(O)cc1)NC(=O)[C@@H](NC(=O)[C@@H]1CCCN1C(=O)[C@H](CCCNC(=N)N)NC(=O)[C@H](CC(N)=O)NC(=O)[C@H](CC(N)=O)NC(=O)CN)C(C)C)C(=O)N1CCC[C@H]1C(=O)N[C@@H](CCC(N)=O)C(=O)N1CCC[C@H]1C(=O)N(CCCNC(=N)N)CC(=O)N1CCC[C@H]1C(=O)N1CCC[C@H]1C(=O)N[C@@H](Cc1cnc[nH]1)C(=O)N1CCC[C@H]1C(=O)N[C@@H](CCCNC(=N)N)C(=O)N[C@@H](CC(C)C)C(=O)O` (H-GNNRPVYIPQP[Gly(N-(CH2)3-guanidino)]PPHPRL-OH), the minimal inhibitory concentration (MIC) is 16 µM (≈ 33.7 µg/mL) against Escherichia coli [1]; 16 µM (≈ 33.7 µg/mL) in the data set on Escherichia coli [2]; 16 µM (≈ 33.7 µg/mL) with Escherichia coli [3]; over 128 µM in the data set with Klebsiella pneumoniae; 16 µM (≈ 33.7 µg/mL) in data set [4]; 32 µM (≈ 67.5 µg/mL) in data set [5]. Moreover, the MIC in [6] came to 16 µM (≈ 33.7 µg/mL). Further, the hemolysis at 1 h, 30 µM in data set [7] was at most 2%. Also, the hemolysis at 1 h, 300 µM in [8] turned out to be 2%. The Activity result in [9] and in data set [10] was “Not Active” throughout.

With `CC[C@H](C)[C@H](NC(=O)[C@H](Cc1ccc(O)cc1)NC(=O)[C@@H](NC(=O)[C@@H]1CCCN1C(=O)[C@H](CCCNC(=N)N)NC(=O)[C@H](CC(N)=O)NC(=O)[C@H](CC(N)=O)NC(=O)CN)C(C)C)C(=O)N1CCC[C@H]1C(=O)N[C@@H](CCC(N)=O)C(=O)N1CCC[C@H]1C(=O)N[C@@H](CCCNC(=N)N)C(=O)N1CCC[C@H]1C(=O)N1CCC[C@H]1C(=O)N[C@@H](Cc1cnc[nH]1)C(=O)N1CCC[C@H]1C(=O)N(CCNC(=N)N)CC(=O)N[C@@H](CC(C)C)C(=O)O` (H-GNNRPVYIPQPRPPHP[X1]L-OH), the MIC (in the data set with Escherichia coli [1]; in the data set with Escherichia coli [2]; against Escherichia coli [3]; against Klebsiella pneumoniae; in data set [4]; in data set [5]) was over 128 µM throughout. In data set [6], this compound returned an MIC of over 128 µM. For the same compound, in data set [7], the hemolysis at 1 h, 30 µM is at most 2%. Moreover, in data set [8], the hemolysis at 1 h, 300 µM came out at 0.62%. Besides, the Activity entry in data set [9] and in data set [10] was “Not Active” throughout.

For the compound `CC[C@H](C)[C@H](NC(=O)[C@H](Cc1ccc(O)cc1)NC(=O)[C@@H](NC(=O)[C@@H]1CCCN1C(=O)CN(CCCNC(=N)N)C(=O)[C@H](CC(N)=O)NC(=O)[C@H](CC(N)=O)NC(=O)CN)C(C)C)C(=O)N1CCC[C@H]1C(=O)N[C@@H](CCC(N)=O)C(=O)N1CCC[C@H]1C(=O)N[C@@H](CCCNC(=N)N)C(=O)N1CCC[C@H]1C(=O)N1CCC[C@H]1C(=O)N[C@@H](Cc1cnc[nH]1)C(=O)N1CCC[C@H]1C(=O)N[C@@H](CCCNC(=N)N)C(=O)N[C@@H](CC(C)C)C(=O)O` (H-GNN[Gly(N-(CH2)3-guanidino)]PVYIPQPRPPHPRL-OH), the minimum inhibitory concentration (MIC) against Escherichia coli [1] was 16 µM (≈ 33.7 µg/mL); in the data set with Escherichia coli [2], 16 µM (≈ 33.7 µg/mL); in the data set with Escherichia coli [3], 16 µM (≈ 33.7 µg/mL); with Klebsiella pneumoniae, over 128 µM; in data set [4], 32 µM (≈ 67.5 µg/mL); in [5] it was 32 µM (≈ 67.5 µg/mL). The same compound registered an MIC in [6] of 16 µM (≈ 33.7 µg/mL). Moreover, the hemolysis at 1 h, 30 µM in data set [7] is at most 2%. The hemolysis at 1 h, 300 µM in [8] is 0.06%. The Activity entry in data set [9] and in [10] was “Not Active” throughout.

For `CC[C@H](C)[C@H](NC(=O)[C@H](Cc1ccc(O)cc1)NC(=O)[C@@H](NC(=O)[C@@H]1CCCN1C(=O)[C@H](CCCNC(=N)N)NC(=O)[C@H](CC(N)=O)NC(=O)[C@H](CC(N)=O)NC(=O)CN)C(C)C)C(=O)N1CCC[C@H]1C(=O)N[C@@H](CCC(N)=O)C(=O)N1CCC[C@H]1C(=O)N[C@@H](CCCNC(=N)N)C(=O)N1CCC[C@H]1C(=O)N1CCC[C@H]1C(=O)N[C@@H](Cc1cnc[nH]1)C(=O)N1CCC[C@H]1C(=O)N(CCCCNC(=N)N)CC(=O)N[C@@H](CC(C)C)C(=O)O` (H-GNNRPVYIPQPRPPHP[NhArg]L-OH), the MIC (in the data set on Escherichia coli [1]; against Escherichia coli [2]; with Escherichia coli [3]; in the data set with Klebsiella pneumoniae; in [4]; in data set [5]) was over 128 µM in each case. This compound also gave an MIC in data set [6] of over 128 µM. Also, the hemolysis at 1 h, 30 µM in [7] is at most 2%. Further, the hemolysis at 1 h, 300 µM in [8] is 0.81%. Besides, the Activity result in data set [9] and in [10] was “Not Active” in each case.

For the compound `CC[C@H](C)[C@H](NC(=O)[C@H](Cc1ccc(O)cc1)NC(=O)[C@@H](NC(=O)[C@@H]1CCCN1C(=O)CN(CCCNC(=N)N)C(=O)[C@H](CC(N)=O)NC(=O)[C@H](CC(N)=O)NC(=O)CN)C(C)C)C(=O)N1CCC[C@H]1C(=O)N[C@@H](CCC(N)=O)C(=O)N1CCC[C@H]1C(=O)N(CCCNC(=N)N)CC(=O)N1CCC[C@H]1C(=O)N1CCC[C@H]1C(=O)N[C@@H](Cc1cnc[nH]1)C(=O)N1CCC[C@H]1C(=O)N(CCCNC(=N)N)CC(=O)N[C@@H](CC(C)C)C(=O)O` (H-GNN[Gly(N-(CH2)3-guanidino)]PVYIPQP[Gly(N-(CH2)3-guanidino)]PPHP[Gly(N-(CH2)3-guanidino)]L-OH), the MIC in the data set on Escherichia coli [2] is over 128 µM. In data set [8], the hemolysis at 1 h, 300 µM came out at 0.06%.

In the case of `CC[C@H](C)[C@H](NC(=O)[C@H](Cc1ccc(O)cc1)NC(=O)[C@@H](NC(=O)[C@H](CCCNC(=N)N)NC(=O)[C@H](CC(N)=O)NC(=O)[C@H](CC(N)=O)NC(=O)CN)C(C)C)C(=O)N1CCC[C@H]1C(=O)N[C@@H](CCC(N)=O)C(=O)N1CCC[C@H]1C(=O)N[C@@H](CCCNC(=N)N)C(=O)N1CCC[C@H]1C(=O)N[C@@H](Cc1cnc[nH]1)C(=O)N1CCC[C@H]1C(=O)N[C@@H](CCCNC(=N)N)C(=O)N[C@@H](CC(C)C)C(=O)O` (H-GNNRVYIPQPRPHPRL-OH), the minimal inhibitory concentration (MIC) (in the data set with Escherichia coli [3]; against Klebsiella pneumoniae; in data set [6]) was over 128 µM in each case. In addition, in data set [7], the hemolysis at 1 h, 30 µM was at most 2%. The Activity entry in [9] and in data set [10] was “Not Active” throughout.

Regarding `CC[C@H](C)[C@H](NC(=O)[C@H](Cc1ccc(O)cc1)NC(=O)[C@@H](NC(=O)[C@@H]1CCCN1C(=O)[C@H](CCCNC(=N)N)NC(=O)[C@H](CC(N)=O)NC(=O)[C@H](CC(N)=O)NC(=O)CN)C(C)C)C(=O)N1CCC[C@H]1C(=O)N[C@@H](CCC(N)=O)C(=O)N1CCC[C@H]1C(=O)N[C@@H](CCCNC(=N)N)C(=O)N1CCC[C@H]1C(=O)N[C@@H](Cc1cnc[nH]1)C(=O)N1CCC[C@H]1C(=O)N[C@@H](CCCNC(=N)N)C(=O)N[C@@H](CC(C)C)C(=O)O` (H-GNNRPVYIPQPRPHPRL-OH), the results for the minimal inhibitory concentration (MIC) (with Escherichia coli [3]; in the data set with Klebsiella pneumoniae; in [6]) were 128 µM (≈ 257 µg/mL), over 128 µM and over 128 µM, respectively. Further, in data set [7], the hemolysis at 1 h, 30 µM was at most 2%. The Activity result in data set [9] and in data set [10] was “Not Active” throughout.

In the case of `CC[C@H](C)[C@H](NC(=O)[C@H](Cc1ccc(O)cc1)NC(=O)[C@@H](NC(=O)[C@@H]1CCCN1C(=O)[C@H](CCCNC(=N)N)NC(=O)[C@H](CC(N)=O)NC(=O)[C@H](CC(N)=O)NC(=O)CN)C(C)C)C(=O)N1CCC[C@H]1C(=O)N[C@@H](CCC(N)=O)C(=O)N1CCC[C@H]1C(=O)N(CCCCNC(=N)N)CC(=O)N1CCC[C@H]1C(=O)N[C@@H](Cc1cnc[nH]1)C(=O)N1CCC[C@H]1C(=O)N[C@@H](CCCNC(=N)N)C(=O)N[C@@H](CC(C)C)C(=O)O` (H-GNNRPVYIPQP[NhArg]PHPRL-OH), the minimum inhibitory concentration (MIC) against Escherichia coli [1] was 16 µM (≈ 32.4 µg/mL); in the data set on Escherichia coli [2], 32 µM (≈ 64.8 µg/mL); in the data set on Escherichia coli [3], 32 µM (≈ 64.8 µg/mL); in the data set on Klebsiella pneumoniae, over 128 µM; in data set [4], 64 µM (≈ 130 µg/mL); in data set [5] it was 64 µM (≈ 130 µg/mL). Besides, the lowest concentration to inhibit growth in data set [6] (MIC) was 32 µM (≈ 64.8 µg/mL). For the same compound, in data set [7], the hemolysis at 1 h, 30 µM was at most 2%. Also, the hemolysis at 1 h, 300 µM in data set [8] is 1.31%. For the same compound, the Activity result in [9] and in data set [10] was “Not Active” each time.
